Results from patent publication US20230002374A1, “GPR52 MODULATOR COMPOUNDS” (Heptares Therapeutics Limited, priority 2019, published 2023).

Legend:
[1] = biological target: T1, human GPR52 (Homo sapiens, UniProt Q9Y2T5);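 also: HEKf cells transduced with GPR52 BacMam for 24 h, 2000 per well, exposed to compounds 30 min at 37° C with 0.5 mM IBMX, cAMP read by HTRF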
[2] = biological target: T1, human GPR52; assay: GPR52 Agonist Functional cAMP Assay; details: pEC50 average, HEKf cells infected with human GPR52 BacMam virus; cAMP HTRF; 30 min at 37° C.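 Also: HEKf cells transduced with GPR52 BacMam for 24 h, 2000 per well, exposed to compounds 30 min at 37° C with 0.5 mM IBMX, cAMP read by HTRF.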
[3] = Pharmacokinetic profiling in rat (IV and PO); assay type: in vivo, male Sprague-Dawley rats; details: male, Sprague-Dawley, plasma, n = 3, mean ± standard deviation
Experimental: The pharmacokinetic profiles of Example 1 were assessed in male Sprague-Dawley rats via intravenous (IV) and oral (per os, PO) routes of delivery. Pharmacokinetic data (mean values±standard deviation) for Example 1 of the invention are detailed in Table 5. Methods: For pharmacokinetic analysis, groups of three male Sprague-Dawley rats, ranging in weight between 200 and 230 g, were administered a single dose of Example 1 via IV or PO route, using the doses, dose volumes and vehicles specified in Table 5. […] WinNonlin v8.2 statistics software (Pharsight Corporation, California, USA) was used to generate pharmacokinetic parameters using non-compartmental analysis.

[4] = Brain penetration in rat (unbound brain-to-plasma ratio, IV); assay type: in vivo, male Sprague-Dawley rats; details: male, Sprague-Dawley, brain and plasma, 1 mg/kg, 10 min post-dose, n = 3
Experimental: Plasma and brain exposure were evaluated to assess the brain penetration of Example 1, following IV administration. Unbound brain-to-plasma ratio (Kp,uu) was calculated, as detailed in Table 5, following experimental determination of binding in rat plasma and brain homogenate. Methods: For brain penetration assessment, male Sprague-Dawley rats (n=3) were administered a single 1 mg/kg dose (formulated in 10% DMAC+10% Solutol HS15+80% saline) via the IV route. After 10 min post-dose, animals were sacrificed and brains extracted, homogenised with 2 volumes (w/v) of 50 mM sodium phosphate buffer (pH 7.4), and analysed by LC-MS/MS. Blood samples were removed at the same time point via tail vein bleed, centrifuged and the plasma analysed by LC-MS/MS. To permit calculation of unbound brain-to-plasma ratio (Kp,uu), test compound binding in rat plasma and brain homogenate was performed, using Rapid Equilibrium Dialysis (RED). […] Fraction unbound (Fu) in plasma and brain was calculated using the following formula, then used to correct total plasma and brain concentrations to derive the Kp,uu: Fraction bound=(Total plasma or brain ratio)−(Total buffer ratio)/Total plasma or brain ratio Fraction unbound (Fu,brain or plasma)=1−Fraction bound For correction of dilution in brain binding assay: Undiluted Fu,brain=(1/dilution factor)/((1/Fv diluted))−1)+(1/dilution factor) Where dilution factor=4

[5] = system: D-amphetamine-induced hyperlocomotor response; assay: Amphetamine-induced locomotor activity in rat; assay type: in vivo, male Sprague-Dawley rats; details: 10 mg/kg PO, 60 min before D-amphetamine SC; activity over two hours
Experimental: The rat amphetamine-induced locomotor hyperactivity test is used to model the enhanced mesolimbic dopaminergic activity thought to contribute to psychosis in humans. […] Male Sprague-Dawley rats (200-250 g) were housed in groups with a 12 h light/dark cycle (lights on at 07.00), at an ambient temperature of 21±2° C. and with standard pelleted diet and water ad libitum. Testing was carried out in the light phase. On the day of the experiment, animals were habituated to the locomotor cages for a 60-minute period.
Locomotor activity was assessed for a two hour period after D-amphetamine treatment. Data are back-transformed means, adjusted for differences between treatment groups in activity during the 30 minutes prior to treatment with test compound or vehicle (n=10-12). Analysis was by general linear model with treatment, cohort and rack as factors. SEMs were calculated from the residuals of the statistical model.
Significant differences vs D-amphetamine are represented as *p<0.05, **p<0.01, ***p<0.001.

[6] = system: subchronic PCP induced cognitive deficit; assay: Subchronic PCP-induced reversal learning deficit in rat; assay type: in vivo, female Lister Hooded rats; details: for reversal of subchronic PCP reversal learning deficit (percent correct responding, reversal phase): vs vehicle-treated subchronic PCP group; for effect on total number of lever presses: scPCP treated rats
Experimental: Testing was carried out in the light phase. Rats underwent operant training firstly to press the left/right lever for a food reward in the presence or absence of a visual cue, and then to respond to the opposite contingency. The reversal learning task was introduced as follows. On the day before each reversal task session, a full 30-minute operant training session was conducted in order to ensure stable responding. In the initial task, animals were first exposed to a five-minute period during which the contingency (cue position relative to active lever) was the same as for the operant training session. This was followed by a 2-minute time-out period, which was signalled by the house-light being turned off. In the subsequent 5-minute period (reversal task), the contingency was reversed. Responses made on the correct and incorrect levers were recorded. Animals undertook several of these reversal learning task sessions before the beginning of the drug studies in order to ensure that they attained a stable level of performance in both phases of the task. […] At this stage, training ceased and rats were treated with PCP (2 mg/kg, IP or vehicle 0.9% saline, IP) for 7 days followed by at least 7-days washout period.
In the initial phase, the reward contingency was the same as the previous day and in the reversal phase the reward contingency was reversed.
Data are presented as mean total number of lever presses (+SEM) and percent correct response (+SEM). […] Statistical significance was assumed when P<0.05 and was determined as follows: one-way ANOVA (IBM SPSS Statistics 22) was performed in order to detect main effect of drug treatment in the initial and reversal tasks. Where a significant effect was detected, a post-hoc LSD t-test was performed in order to compare treatment groups versus the appropriate control in the reversal phase of the test.
Data are shown as mean±s.e.m. % correct responding (n=8-10) and were analysed by ANOVA and post-hoc Student's t-test.
Data are shown as the mean total number of lever presses, correct responses are shown as clear bars and incorrect responses are shown as shaded bars (n=8-10).

[7] = 6 mg/kg IP, 60 min prior to testing

T1 sequence (Q9Y2T5 whole entry): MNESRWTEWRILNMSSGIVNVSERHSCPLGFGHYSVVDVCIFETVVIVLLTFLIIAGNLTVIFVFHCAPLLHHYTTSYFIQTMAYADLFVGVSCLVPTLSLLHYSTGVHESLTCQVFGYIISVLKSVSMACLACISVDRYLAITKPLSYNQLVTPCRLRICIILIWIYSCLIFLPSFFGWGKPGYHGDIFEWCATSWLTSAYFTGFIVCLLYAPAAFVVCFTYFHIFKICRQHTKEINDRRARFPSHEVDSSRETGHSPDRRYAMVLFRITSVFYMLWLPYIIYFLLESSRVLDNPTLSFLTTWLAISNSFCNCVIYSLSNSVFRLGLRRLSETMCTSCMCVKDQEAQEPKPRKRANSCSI

Emax (%) [1] [%] | EC50 [2] [µM] | SMILES | further results
103 | 0.0251 | Cc1nn(-c2ccnc(C(O)c3cc(F)cc(C(F)(F)F)c3)c2)c2c1C(=O)NCC2 (single isomer, unassigned) [117 Isomer 2, 1-(2-((3-fluoro-5-(trifluoromethyl)phenyl)(hydroxy)methyl)pyridin-4-yl)-3-methyl-1,5,6,7-tetrahydro-4H-pyrazolo[4,3-c]pyridin-4-one] | –
101 | 0.00794 | Cc1nn(-c2cc(C(O)c3cc(F)cc(C(F)(F)F)c3)ccn2)c2c1C(=O)NCC2 (single isomer, unassigned) [118 Isomer 2, 1-(4-((3-fluoro-5-(trifluoromethyl)phenyl)(hydroxy)methyl)pyridin-2-yl)-3-methyl-1,5,6,7-tetrahydro-4H-pyrazolo[4,3-c]pyridin-4-one] | –
72 | 1.58 | O=C1NCCc2c1cnn2-c1ccnc(C(O)c2cc(F)cc(C(F)(F)F)c2)c1 (single isomer, unassigned) [Example 36 Isomer 1, 1-(2-((3-fluoro-5-(trifluoromethyl)phenyl)(hydroxy)methyl)pyridin-4-yl)-1,5,6,7-tetrahydro-4H-pyrazolo[4,3-c]pyridin-4-one] | –
94 | 0.251 | O=C1NCCc2c1cnn2-c1ccnc(C(O)c2cc(F)cc(C(F)(F)F)c2)c1 (single isomer, unassigned) [Example 36 Isomer 2, 1-(2-((3-fluoro-5-(trifluoromethyl)phenyl)(hydroxy)methyl)pyridin-4-yl)-1,5,6,7-tetrahydro-4H-pyrazolo[4,3-c]pyridin-4-one] | –
83 | 0.126 | CC1Cc2c(cnn2-c2ccnc(Cc3cc(F)cc(C(F)(F)F)c3)c2)C(=O)N1 (single isomer, unassigned) [Example 40 Isomer 2, 1-(2-(3-fluoro-5-(trifluoromethyl)benzyl)pyridin-4-yl)-6-methyl-1,5,6,7-tetrahydro-4H-pyrazolo[4,3-c]pyridin-4-one] | –
– | – | O=C1NCCc2c1cnn2-c1ccnc(Cc2cc(F)cc(C(F)(F)F)c2)c1 [Example 1, 1-(2-(3-fluoro-5-(trifluoromethyl)benzyl)pyridin-4-yl)-1,5,6,7-tetrahydro-4H-pyrazolo[4,3-c]pyridin-4-one] | clearance ([3]; Rat IV, 1 mg/kg): 16.4 ± 1 mL/min/kg; bioavailability ([3]; Rat PO, 3 mg/kg): 40.4 ± 6%; Kp uu at 10 min [4]: 0.35 ± 0.03; reduction of the D-amphetamine-induced hyperlocomotor response [5]: reached statistical significance at 10 mg/kg; reversal of subchronic PCP reversal learning deficit (percent correct responding, reversal phase) ([6]; 10 mg/kg PO, 2 h prior to testing): significantly (P<0.05−P<0.001) reversed the deficit; reversal of subchronic PCP reversal learning deficit (percent correct responding, reversal phase) ([6]; 30 mg/kg PO, 2 h prior to testing): significantly (P<0.05−P<0.001) reversed the deficit; effect on total number of lever presses ([6]; 3, 10 and 30 mg/kg PO, 2 h prior to testing): no significant effects
– | – | Cc1cc(-n2nc(Cc3cc(F)cc(C(F)(F)F)c3)nc2C)ccc1C(N)=O [FTBMT, reference compound] | reduction of the D-amphetamine-induced hyperlocomotor response [5]: showed a trend towards a reduced D-amphetamine-induced hyperlocomotor response but statistical significance was not reached
– | – | Oc1cc2c(cc1O)C(c1ccccc1)CNCC2 (centres unmarked) [SKF-38393, reference compound] | effect on total number of lever presses [6, 7]: no significant effects; reversal of subchronic PCP reversal learning deficit (percent correct responding, reversal phase) [6, 7]: significantly (P<0.05−P<0.001) reversed the deficit
